Reference: patent US10149477B2, “Substituted pyrimidinium compounds for combating animal pests” (BASF SE, priority 2014, dated 2018)

Legend:
Format in all cases: in vivo
[1] = system: Orchid Thrips (Dichromothrips corbetti); assay: Orchid thrips, floral-immersion technique; conditions: dipped orchid flowers, 72 hours after treatment, read-out: mortality in comparison with untreated controls
Protocol: Dichromothrips corbetti adults used for bioassay were obtained from a colony maintained continuously under laboratory conditions. For testing purposes, the test compound is diluted in a 1:1 mixture of acetone:water (vol:vol), plus 0.01% vol/vol Alkamuls® EL 620 surfactant.
Thrips potency of each compound was evaluated by using a floral-immersion technique. Plastic petri dishes were used as test arenas. All petals of individual, intact orchid flowers were dipped into treatment solution and allowed to dry. Treated flowers were placed into individual petri dishes along with about 20 adult thrips. The petri dishes were then covered with lids. All test arenas were held under continuous light and a temperature of about 28° C. for duration of the assay. After 3 days, the numbers of live thrips were counted on each flower, and along inner walls of each petri dish. The percent mortality was recorded 72 hours after treatment.

[2] = system: Rice Green Leafhopper (Nephotettix virescens); assay: Rice green leafhopper, sprayed rice seedlings; conditions: after 72 hours, read-out: mortality in comparison with untreated controls
Protocol: Rice seedlings were cleaned and washed 24 hours before spraying. The active compounds were formulated in 50:50 acetone:water (vol:vol), and 0.1% vol/vol surfactant (EL 620) was added. Potted rice seedlings were sprayed with 5 ml test solution, air dried, placed in cages and inoculated with 10 adults. Treated rice plants were kept at about 28-29° C. and relative humidity of about 50-60%. Percent mortality was recorded after 72 hours.

[3] = system: Cotton Aphid (Aphis gossypii); assay: Cotton aphid, spray on infested cotton plants; conditions: 120 h, sprayed cotton plants, after 5 days, read-out: mortality in comparison with untreated controls
Protocol: The active compounds were formulated by a Tecan liquid handler in 100% cyclohexa-none as a 10,000 ppm solution supplied in tubes. The 10,000 ppm solution was serially diluted in 100% cyclohexanone to make interim solutions. These served as stock solu-tions for which final dilutions were made by the Tecan in 50% acetone:50% water (v/v) into 10 or 20 ml glass vials. A nonionic surfactant (Kinetic®) was included in the solution at a volume of 0.01% (v/v).
(§1) The vials were then inserted into an automated electrostatic sprayer equipped with an atomizing nozzle for application to plants/insects.
Cotton plants at the cotyledon stage were infested with aphids prior to treatment by placing a heavily infested leaf from the main aphid colony on top of each cotyledon. Aphids were allowed to transfer overnight to accomplish an infestation of 80-100 aphids per plant and the host leaf was removed. The infested plants were then sprayed by an automated electrostatic plant sprayer equipped with an atomizing spray nozzle. The plants were dried in the sprayer fume hood, removed from the sprayer, and then main-tained in a growth room under fluorescent lighting in a 24-hr photoperiod at 25° C. and 20-40% relative humidity. Aphid mortality on the treated plants, relative to mortality on untreated control plants, was determined after 5 days.

[4] = system: Rice Brown Plant Hopper (Nilaparvata lugens); assay: Rice brown plant hopper, sprayed rice seedlings; conditions: after 72 hours, read-out: mortality in comparison with untreated controls
Protocol: Rice seedlings were cleaned and washed 24 hours before spraying. The active compounds were formulated in 50:50 acetone:water (vol:vol) and 0.1% vol/vol surfactant (EL 620) was added. Potted rice seedlings were sprayed with 5 ml test solution, air dried, placed in cages and inoculated with 10 adults. Treated rice plants were kept at about 28-29° C. and relative humidity of about 50-60%. Percent mortality was recorded after 72 hours.

[5] = system: green peach aphid (Myzus persicae); assay: Green peach aphid, systemic, artificial diet in 96-well microtiter plates; conditions: 72 h, 3 days, read-out: mortality in comparison with untreated controls
Excerpt: a) For evaluating control of green peach aphid (Myzus persicae) through systemic means the test unit consisted of 96-well-microtiter plates containing liquid artificial diet under an artificial membrane.
The compounds were formulated using a solution containing 75% v/v water and 25% v/v DMSO. Different concentrations of formulated compounds were pipetted into the aphid diet, using a custom built pipetter, at two replications.
After application, 5-8 adult aphids were placed on the artificial membrane inside the microtiter plate wells. The aphids were then allowed to suck on the treated aphid diet and incubated at about 23±1° C. and about 50±5% relative humidity for 3 days. Aphid mortality and fecundity was then visually assessed.

[6] = system: green peach aphid (Myzus persicae); assay: Green peach aphid, spray on infested bell pepper plants; conditions: 120 h, sprayed bell pepper plants, after 5 days, read-out: mortality in comparison with untreated controls
Protocol: b) The active compounds were formulated by a Tecan liquid handler in 100% cyclohexa-none as a 10,000 ppm solution supplied in tubes. The 10,000 ppm solution was serially diluted in 100% cyclohexanone to make interim solutions. These served as stock solu-tions for which final dilutions were made by the Tecan in 50% acetone:50% water (v/v) into 10 or 20 ml glass vials. A nonionic surfactant (Kinetic®) was included in the solution at a volume of 0.01% (v/v).
as §1
Bell pepper plants at the first true-leaf stage were infested prior to treatment by placing heavily infested leaves from the main colony on top of the treatment plants. Aphids were allowed to transfer overnight to accomplish an infestation of 30-50 aphids per plant and the host leaves were removed. The infested plants were then sprayed by an automated electrostatic plant sprayer equipped with an atomizing spray nozzle. The plants were dried in the sprayer fume hood, removed, and then maintained in a growth room under fluorescent lighting in a 24-hr photoperiod at about 25° C. and about 20-40% relative humidity. Aphid mortality on the treated plants, relative to mortality on untreated control plants, was determined after 5 days.

[7] = system: Cowpea Aphid (Aphis craccivora); assay: Cowpea aphid, spray on colonized cowpea plants; conditions: sprayed cowpea plants, after 72 hours, read-out: mortality in comparison with untreated controls
Protocol: The active compound is dissolved at the desired concentration in a mixture of 1:1 (vol:vol) distilled water: acetone. Surfactant (Kinetic® HV) is added at a rate of 0.01% (vol/vol). The test solution is prepared at the day of use.
Potted cowpea plants were colonized with approximately 30-50 aphids of various stages by manually transferring a leaf tissue cut from infested plant 24 hours before application. Plants were sprayed with the test solutions using a DeVilbiss® hand atom-izer at 20-30 psi (=1.38 to 2.07 bar) after the pest population has been checked. Treat-ed plants are maintained on light carts at about 25-26° C. Percent mortality was assessed after 72 hours.

[8] = system: vetch aphid (Megoura viciae); assay: Vetch aphid, broad bean leaf disks in 24-well microtiter plates; conditions: foliar, 120 h, sprayed leaf disks, 5 days, read-out: mortality in comparison with untreated controls
Protocol: For evaluating control of vetch aphid (Megoura viciae) through contact or systemic means the test unit consisted of 24-well-microtiter plates containing broad bean leaf disks.
The compounds were formulated using a solution containing 75% v/v water and 25% v/v DMSO. Different concentrations of formulated compounds were sprayed onto the leaf disks at 2.5 μl, using a custom built micro atomizer, at two replications.
After application, the leaf disks were air-dried and 5-8 adult aphids placed on the leaf disks inside the microtiter plate wells. The aphids were then allowed to suck on the treated leaf disks and incubated at about 23+1° C. and about 50+5% relative humidity for 5 days. Aphid mortality and fecundity was then visually assessed.

C[n+]1c([O-])c(-c2ccccc2)c(=O)n2c1SC(c1cnc(Cl)s1)C2 (centres unmarked) [compound 1]
> 75%: mortality at 500 ppm [1] | mortality at 500 ppm [2] | mortality at 300 ppm [3] | mortality at 500 ppm [4] | mortality at 2500 ppm [5] | mortality at 2500 ppm [6] | mortality at 500 ppm [7] | mortality at 2500 ppm [8]
